# Assay results: PubChem BioAssay (NCI)
#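 How tested: cells in 96-well plates exposed to compound for 48 hours at five concentrations. GI50 = concentration required for 50% inhibition of growth. TGI marks complete inhibition of growth.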
# How the values were obtained:
# Assay in all cases: NCI tumour cell line growth inhibition, 48 h
# RXF 393 renal = tested on: RXF 393 renal
# SK-MEL-28 melanoma = tested on: SK-MEL-28 melanoma
# SF-268 CNS = tested on: SF-268 CNS
# UO-31 renal = tested on: UO-31 renal
# HL-60(TB) leukemia = tested on: HL-60(TB) leukemia
# EKVX NSCLC = tested on: EKVX NSCLC
# LOX IMVI melanoma = tested on: LOX IMVI melanoma
# 786-0 renal = tested on: 786-0 renal
# SNB-19 CNS = tested on: SNB-19 CNS
# MDA-MB-231 breast = tested on: MDA-MB-231 breast
# SR leukemia = tested on: SR leukemia
# NCI-H23 lung = tested on: NCI-H23 lung
# A498 renal = tested on: A498 renal
# KM12 colon = tested on: KM12 colon
# PC-3 prostate = tested on: PC-3 prostate
# OVCAR-5 ovarian = tested on: OVCAR-5 ovarian
# M14 melanoma = tested on: M14 melanoma
# SF-295 CNS = tested on: SF-295 CNS
# NCI/ADR-RES ovarian = tested on: NCI/ADR-RES ovarian
# ACHN renal = tested on: ACHN renal
# HCC-2998 colon = tested on: HCC-2998 colon
# MCF7 breast = tested on: MCF7 breast
# T-47D breast = tested on: T-47D breast
# COLO 205 colon = tested on: COLO 205 colon
# TK-10 renal = tested on: TK-10 renal
# A549 NSCLC = tested on: A549 NSCLC
# SNB-75 CNS = tested on: SNB-75 CNS
# HT29 colon = tested on: HT29 colon
# BT-549 breast = tested on: BT-549 breast
# CAKI-1 renal = tested on: CAKI-1 renal
# SN12C renal = tested on: SN12C renal
# HOP-62 NSCLC = tested on: HOP-62 NSCLC
# SK-MEL-2 melanoma = tested on: SK-MEL-2 melanoma
# UACC-257 melanoma = tested on: UACC-257 melanoma
# UACC-62 melanoma = tested on: UACC-62 melanoma
# HOP-92 NSCLC = tested on: HOP-92 NSCLC
# HCT-15 colon = tested on: HCT-15 colon
# OVCAR-4 ovarian = tested on: OVCAR-4 ovarian
# SK-MEL-5 melanoma = tested on: SK-MEL-5 melanoma
# OVCAR-8 ovarian = tested on: OVCAR-8 ovarian
# SK-OV-3 ovarian = tested on: SK-OV-3 ovarian
# MALME-3M melanoma = tested on: MALME-3M melanoma
# MOLT-4 leukemia = tested on: MOLT-4 leukemia
# NCI-H460 lung = tested on: NCI-H460 lung
# NCI-H522 lung = tested on: NCI-H522 lung
# K-562 leukemia = tested on: K-562 leukemia
# NCI-H226 lung = tested on: NCI-H226 lung
# SF-539 CNS = tested on: SF-539 CNS
# RPMI-8226 leukemia = tested on: RPMI-8226 leukemia
# OVCAR-3 ovarian = tested on: OVCAR-3 ovarian
# CCRF-CEM leukemia = tested on: CCRF-CEM leukemia
# HS 578T breast = tested on: HS 578T breast
# DU-145 prostate = tested on: DU-145 prostate
# MDA-MB-435 = tested on: MDA-MB-435
# HCT-116 colon = tested on: HCT-116 colon
# SW-620 colon = tested on: SW-620 colon
# U251 CNS = tested on: U251 CNS
smiles,measurement,setting,value
O=c1[nH]c(=O)n(C2CC(O)C(COP(=O)(OCc3ccc([N+](=O)[O-])o3)N(CCCCCl)CC(O)CO)O2)cc1F (configuration not stated),GI50,RXF 393 renal,0.0243 µM
same,TGI,RXF 393 renal,3.6 µM
same,GI50,SK-MEL-28 melanoma,> 100 µM
same,TGI,SK-MEL-28 melanoma,> 100 µM
same,TGI,SF-268 CNS,> 100 µM
same,GI50,UO-31 renal,0.174 µM
same,TGI,UO-31 renal,> 100 µM
same,GI50,HL-60(TB) leukemia,0.0262 µM
same,TGI,HL-60(TB) leukemia,> 100 µM
same,GI50,EKVX NSCLC,> 28.2 µM
same,TGI,EKVX NSCLC,> 100 µM
same,GI50,LOX IMVI melanoma,< 0.0226 µM
same,TGI,LOX IMVI melanoma,> 100 µM
same,GI50,786-0 renal,0.624 µM
same,TGI,786-0 renal,> 100 µM
same,GI50,SNB-19 CNS,> 20.3 µM
same,TGI,SNB-19 CNS,> 100 µM
same,GI50,MDA-MB-231 breast,> 100 µM
same,TGI,MDA-MB-231 breast,> 100 µM
same,GI50,SR leukemia,< 0.0269 µM
same,TGI,SR leukemia,> 100 µM
same,GI50,NCI-H23 lung,2.79 µM
same,TGI,NCI-H23 lung,> 100 µM
same,GI50,A498 renal,0.138 µM
same,TGI,A498 renal,39.1 µM
same,GI50,KM12 colon,1.87 µM
same,TGI,KM12 colon,> 100 µM
same,GI50,PC-3 prostate,0.154 µM
same,TGI,PC-3 prostate,> 100 µM
same,GI50,OVCAR-5 ovarian,> 100 µM
same,TGI,OVCAR-5 ovarian,> 100 µM
same,GI50,M14 melanoma,0.365 µM
same,TGI,M14 melanoma,2.23 µM
same,GI50,SF-295 CNS,0.295 µM
same,TGI,SF-295 CNS,> 25.1 µM
same,GI50,NCI/ADR-RES ovarian,0.781 µM
same,TGI,NCI/ADR-RES ovarian,> 100 µM
same,GI50,ACHN renal,< 0.0216 µM
same,TGI,ACHN renal,12.6 µM
same,GI50,HCC-2998 colon,0.401 µM
same,TGI,HCC-2998 colon,> 100 µM
same,GI50,MCF7 breast,< 0.01 µM
same,TGI,MCF7 breast,> 100 µM
same,GI50,T-47D breast,> 21.4 µM
same,TGI,T-47D breast,> 100 µM
same,GI50,COLO 205 colon,> 22.5 µM
same,TGI,COLO 205 colon,> 100 µM
same,GI50,TK-10 renal,0.326 µM
same,TGI,TK-10 renal,> 87.7 µM
same,GI50,A549 NSCLC,< 0.01 µM
same,TGI,A549 NSCLC,> 100 µM
same,GI50,SNB-75 CNS,2.82 µM
same,TGI,SNB-75 CNS,> 100 µM
same,GI50,HT29 colon,1.66 µM
same,TGI,HT29 colon,> 100 µM
same,GI50,BT-549 breast,0.663 µM
same,TGI,BT-549 breast,> 100 µM
same,GI50,CAKI-1 renal,0.191 µM
same,TGI,CAKI-1 renal,0.589 µM
same,GI50,SN12C renal,< 0.0496 µM
same,GI50,HOP-62 NSCLC,0.412 µM
same,TGI,HOP-62 NSCLC,> 26.2 µM
same,GI50,SK-MEL-2 melanoma,> 73.8 µM
same,TGI,SK-MEL-2 melanoma,> 100 µM
same,GI50,UACC-257 melanoma,0.0213 µM
same,TGI,UACC-257 melanoma,0.852 µM
same,GI50,UACC-62 melanoma,0.138 µM
same,GI50,HOP-92 NSCLC,0.156 µM
same,GI50,HCT-15 colon,4.53 µM
same,TGI,HCT-15 colon,> 100 µM
same,GI50,OVCAR-4 ovarian,> 100 µM
same,TGI,OVCAR-4 ovarian,> 100 µM
same,GI50,SK-MEL-5 melanoma,0.386 µM
same,TGI,SK-MEL-5 melanoma,4.49 µM
same,GI50,OVCAR-8 ovarian,0.182 µM
same,TGI,OVCAR-8 ovarian,> 100 µM
same,GI50,SK-OV-3 ovarian,> 100 µM
same,TGI,SK-OV-3 ovarian,> 100 µM
same,GI50,MALME-3M melanoma,0.207 µM
same,TGI,MALME-3M melanoma,> 29.9 µM
same,GI50,MOLT-4 leukemia,0.285 µM
same,TGI,MOLT-4 leukemia,> 100 µM
same,GI50,NCI-H460 lung,< 0.0474 µM
same,TGI,NCI-H460 lung,> 100 µM
same,GI50,NCI-H522 lung,0.985 µM
same,TGI,NCI-H522 lung,77.4 µM
same,GI50,K-562 leukemia,3.14 µM
same,TGI,K-562 leukemia,> 100 µM
same,GI50,NCI-H226 lung,0.157 µM
same,TGI,NCI-H226 lung,> 55.2 µM
same,GI50,SF-539 CNS,< 0.0348 µM
same,GI50,RPMI-8226 leukemia,< 0.01 µM
same,TGI,RPMI-8226 leukemia,> 49.8 µM
same,GI50,OVCAR-3 ovarian,0.39 µM
same,GI50,CCRF-CEM leukemia,0.0102 µM
same,TGI,CCRF-CEM leukemia,> 100 µM
same,GI50,HS 578T breast,0.824 µM
same,TGI,HS 578T breast,> 100 µM
same,GI50,DU-145 prostate,0.176 µM
same,TGI,DU-145 prostate,> 34.8 µM
same,GI50,MDA-MB-435,1.26 µM
same,TGI,MDA-MB-435,> 100 µM
same,GI50,HCT-116 colon,0.999 µM
same,TGI,HCT-116 colon,> 100 µM
same,GI50,SW-620 colon,0.0447 µM
same,TGI,SW-620 colon,> 100 µM
same,TGI,U251 CNS,> 100 µM
